The values that follow come from PubChem BioAssay (NCI).

Each structure is given as a SMILES string.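 Interpolation was linear, between the two tested concentrations surrounding the appropriate level; five concentrations were tested over 48 hours in 96-well plates. GI50 marks 50% less growth. TGI: concentration producing complete growth inhibition.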

Holding throughout (assay): inhibition of tumour cell growth, NCI panel, 48 h
The subject of assay [1] is NCI-H522 lung.
The test system of assay [2] is BT-549 breast.
Assay [3] relates to T-47D breast.
Assay [4] has as its system A549 NSCLC.
The test system of assay [5] is NCI-H23 lung.
In assay [6] the test system is SNB-75 CNS.
Assay [7] concerns MALME-3M melanoma.
Assay [8] has as its system EKVX NSCLC.
In assay [9] the test system is SNB-19 CNS.
For assay [10], the system named is DU-145 prostate.
Assay [11] relates to ACHN renal.
The subject of assay [12] is HOP-62 NSCLC.
Assay [13] has as its system COLO 205 colon.
For assay [14], the system named is HT29 colon.
For assay [15], the system named is TK-10 renal.
Assay [16] deals with M14 melanoma.
For assay [17], the system named is RXF 393 renal.
Assay [18] concerns NCI-H226 lung.

On to `O=S(=O)(SC1=NCCN1)c1ccc2ccccc2c1`, for which the TGI was 46.3 µM in assay [1]; 83.9 µM in assay [2]; > 100 µM in [3]; 86.3 µM in [4]; 61.8 µM in [5]; 68 µM in assay [6]. The TGI in assay [7] is > 100 µM; in assay [8], > 100 µM; in assay [9], 39.1 µM; in [10], > 100 µM; in [11], > 100 µM; in assay [12] it was 69.5 µM. Besides, the TGI is 37.7 µM in [13]; 40 µM in assay [14]; > 100 µM in assay [15]; 63.6 µM in assay [16]; > 100 µM in assay [17]; 98 µM in assay [18].
Regarding `COC(=O)c1cc(C)ccc1C1CN=NC12Cc1ccc(C)cc1C2=O` (configuration not stated), the TGI was 98.9 µM in [1]; > 100 µM in [2]; > 100 µM in [3]; > 100 µM in assay [4]; > 100 µM in assay [5]; > 100 µM in [6]. In addition, the TGI in assay [7], in assay [8], in [9], in assay [10], in [11] and in assay [12] was > 100 µM each time. The TGI in assay [13] is 29.3 µM; in assay [14], > 100 µM; in assay [15], > 100 µM; in assay [16] it was > 100 µM; in [17] it was > 100 µM; in assay [18], > 100 µM.
For the compound `O=C1CN(C(=O)C2CCCN2C(=O)C2CCCN2)C(=O)CN1` (configuration not stated), the TGI in assay [1], in [2], in assay [3], in assay [4], in assay [5] and in assay [6] was > 100 µM throughout. Also, the TGI in assay [7], in assay [8], in assay [9], in assay [10], in assay [11] and in [12] was > 100 µM throughout. For the same compound, the TGI in assay [13], in assay [14], in assay [15], in [16], in [17] and in assay [18] was > 100 µM each time.
Take `CCOC(=O)C1(Cc2ccccc2)C=CN(C(=O)c2ccccc2)C=C1`: the TGI in assay [1] is 76 µM; in [2], > 100 µM; in assay [3], 78.8 µM; in [4], > 100 µM; in assay [5], > 100 µM; in assay [6], 64.2 µM. For the same compound, the TGI was 88.9 µM in assay [7]; > 100 µM in assay [8]; > 100 µM in [9]; > 100 µM in assay [10]; > 100 µM in assay [11]; > 100 µM in assay [12]. In addition, the TGI in assay [13] is 37.5 µM; in assay [14] it was > 100 µM; in assay [15], 88.3 µM; in assay [16] it was > 100 µM; in assay [17], > 100 µM; in assay [18], > 100 µM.
As to `Cc1cc2cc3c(cc2c(-c2ccc([N+](=O)[O-])cc2)n1)OCO3`, the TGI is 40.6 µM in assay [1]; 73.7 µM in assay [2]; > 100 µM in assay [3]; > 100 µM in assay [4]; > 100 µM in assay [5]; 58.4 µM in assay [6]. For the same compound, the TGI is > 100 µM in assay [7]; > 100 µM in assay [8]; > 100 µM in assay [9]; > 100 µM in assay [10]; > 100 µM in assay [11]; 40 µM in [12]. In addition, the TGI was > 100 µM in [13]; > 100 µM in [14]; > 100 µM in [15]; > 100 µM in assay [16]; > 100 µM in [17]; 89.8 µM in assay [18].
Take `CCC/C=C/c1cc2c(cc1O)CC[C@@H]1[C@@H]2CC[C@]2(C)[C@@H](O)CC[C@@H]12`: the TGI in assay [1] came to 35.5 µM; in assay [2], 36.1 µM; in assay [3], 77.1 µM; in assay [4] it was 36.9 µM; in assay [5], 35.9 µM; in assay [6], 34.6 µM. For the same compound, the TGI is 30.3 µM in assay [7]; 41.2 µM in [8]; > 56.6 µM in assay [9]; 34.2 µM in assay [10]; 34.2 µM in assay [11]; 42.6 µM in assay [12]. The TGI in assay [13] worked out at 36.5 µM; in assay [14], 32.9 µM; in assay [15], 38 µM; in assay [16] it was 37.3 µM; in [17] it was 33.2 µM; in assay [18], 45.8 µM. For the same compound, the GI50 in assay [10] was 18.7 µM; in [12] it was 21.9 µM.
Take `COC(=O)CC(c1cn(S(=O)(=O)c2ccc(C)cc2)c2ccccc12)C1C[C@@H](C(=O)OC)N(C(=O)OC(C)(C)C)C1=O` (some centres not stated): the TGI in assay [1], in assay [2], in [3], in [4], in assay [5] and in assay [6] was > 100 µM in each case. In addition, the TGI in assay [7], in assay [8], in assay [9], in [10], in assay [11] and in [12] was > 100 µM each time. Moreover, the TGI in assay [13] is 86.6 µM; in assay [14] it was > 100 µM; in [15], > 100 µM; in [16] it was > 100 µM; in [17], > 100 µM; in assay [18], > 100 µM.
Take `c1nc(N2CC2)c2cnn(C3CCCCO3)c2n1` (configuration not stated): the TGI in assay [1], in assay [2], in [3], in assay [4], in [5] and in assay [6] was > 100 µM in each case. In addition, the TGI in [7], in assay [8], in [9], in assay [10], in assay [11] and in assay [12] was > 100 µM each time. The TGI in assay [13], in assay [14], in assay [15], in assay [16], in assay [17] and in assay [18] was > 100 µM in each case.
In the case of `O=c1cc(N2CCNCC2)nc2ccccn12`, the TGI in assay [1], in assay [2], in [3], in assay [4], in assay [5] and in assay [6] was > 100 µM throughout. The TGI in assay [7], in assay [8], in assay [9], in [10], in [11] and in assay [12] was > 100 µM throughout. For the same compound, the TGI in assay [13], in [14], in assay [15], in assay [16], in assay [17] and in assay [18] was > 100 µM throughout.
Consider `CC(C)(C)C(=O)OCOP(=O)(OCOC(=O)C(C)(C)C)OCC1OC(n2ccc(=O)[nH]c2=O)C(N=[N+]=[N-])C1O` (configuration not stated), for which the TGI in assay [1] amounted to 17.5 µM; in assay [2], 14.9 µM; in [3] it was 11.7 µM; in assay [4], 14 µM; in assay [5], 16.3 µM; in [6] it was 14.1 µM. Further, the TGI in assay [7] was 1.57 µM; in assay [8], 20.6 µM; in [9] it was 25.7 µM; in [10] it was 17.6 µM; in assay [11], 17.8 µM; in assay [12], 14.5 µM. Also, the TGI was found to be 13.5 µM in assay [13]; 11.4 µM in assay [14]; 22.3 µM in assay [15]; 14.3 µM in assay [16]; 7.07 µM in assay [17]; 22 µM in [18].
Turning to `Cc1ccc([N+](=O)[O-])cc1S(=O)(=O)Nc1ccc(C2=NN(c3ccc([N+](=O)[O-])cc3[N+](=O)[O-])C(c3cccs3)C2)cc1` (configuration not stated), the TGI is 39 µM in [1]; 49.8 µM in assay [2]; > 100 µM in [3]; > 100 µM in assay [4]; 44.1 µM in assay [5]; 81.3 µM in [6]. In addition, the TGI in [7] is 94.7 µM; in assay [8], 59.2 µM; in assay [9] it was > 100 µM; in assay [10], > 100 µM; in [11], 81.6 µM; in assay [12], 58.3 µM. The TGI in assay [13] is 54.5 µM; in assay [14], > 100 µM; in assay [15], 81.7 µM; in assay [16] it was 32.9 µM; in [17], 54.3 µM; in assay [18], 60.1 µM.
`C/C(Cl)=N/OC(=O)Nc1ccc(S(N)(=O)=O)c(C)c1`: the TGI in assay [1] was 3.45 µM; in assay [2], 25.1 µM; in assay [3], 9.98 µM; in assay [4] it was 38.3 µM; in assay [5], 39.3 µM; in assay [6], 34.2 µM. Besides, the TGI is 4.5 µM in assay [7]; 13 µM in assay [8]; 32.3 µM in assay [9]; 30.5 µM in assay [10]; 5.37 µM in [11]; 34.9 µM in assay [12]. In addition, the TGI in [13] is 4.14 µM; in assay [14] it was > 77.7 µM; in assay [15], 17.9 µM; in assay [16], 25.2 µM; in assay [17], 31.9 µM; in assay [18], 47.6 µM.
With `CN(C)c1ccc(/C=C2/NC(=S)NC2=O)cc1`, the TGI in assay [1], in assay [2], in [3], in [4], in [5] and in assay [6] was > 100 µM throughout. The TGI in assay [7], in assay [8], in assay [9], in [10], in [11] and in assay [12] was > 100 µM in each case. Also, the TGI in assay [13], in assay [14], in assay [15], in assay [16], in assay [17] and in assay [18] was > 100 µM each time.
On to `CN(CCC(=O)O)C1=Nc2ccc(Cl)cc2C(c2ccccc2)=[N+]([O-])C1`, for which the TGI in assay [1], in [2], in [3], in assay [4], in assay [5] and in assay [6] was > 100 µM throughout. Further, the TGI in [7], in assay [8], in assay [9], in [10], in [11] and in assay [12] was > 100 µM throughout. The TGI in assay [13], in assay [14], in [15], in assay [16], in assay [17] and in assay [18] was > 100 µM in each case.
`COC1(C)CP(=O)(OC(C)C)CC(C)=C1Cl` (configuration not stated): the TGI is 24.8 µM in assay [1]; 46.6 µM in assay [2]; 55.6 µM in assay [3]; > 100 µM in assay [4]; 32.4 µM in assay [5]; > 100 µM in assay [6]. Moreover, the TGI in assay [7] was 40.8 µM; in [8], 29.6 µM; in [9] it was 63.7 µM; in assay [10] it was 82.7 µM; in assay [11], > 100 µM; in assay [12], 51.7 µM. The TGI is 30.2 µM in [13]; 26.5 µM in [14]; 33.2 µM in assay [15]; 46.2 µM in assay [16]; 55.2 µM in assay [17]; 78.2 µM in assay [18].
